Experimental data reported in patent US12195427B2, “MASP-2 inhibitors and methods of use” (priority 2018, dated 2025).

Target: MASP-2 CCP2-SP (Homo sapiens (Human), UniProt O00187)
Assay: MASP-2 co-crystallization, X-ray crystallography and structure analysis (H-bonds, van der Waals contacts);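 on Ligand-pharmacophore element distance, pharmacophore element C2: distance from averaged pharmacophore element to bound ligand; missing value means element absent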;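 on Ligand-pharmacophore element distance, pharmacophore element C3: distance from averaged pharmacophore element to bound ligand; missing value means element absent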;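 on Ligand-pharmacophore element distance, pharmacophore element C4: distance from averaged pharmacophore element to bound ligand; missing value means element absent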;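 on Ligand-pharmacophore element distance, pharmacophore element C5: distance from averaged pharmacophore element to bound ligand; missing value means element absent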
Set-up: van der Waals contact distance, MASP-2 HIS 483 atom CD2 / van der Waals contact distance, MASP-2 HIS 483 atom NE2 / van der Waals contact distance, SER 654 C to compound atom / van der Waals contact distance, SER 654 O to compound atom / van der Waals contact distance, TRP 655 C to compound atom / van der Waals contact distance, MASP-2 GLY 528 atom CA / van der Waals contact distance TRP 655 atom CZ3 / van der Waals contact distance TRP 655 atom N / van der Waals contact distance TRP 655 atom CE3 / van der Waals contact distance GLY 656 atom C / van der Waals contact distance GLY 656 atom CA / van der Waals contact distance GLY 656 atom O / van der Waals contact distance, MASP-2 TYR 607 atom CD1 / van der Waals contact distance, MASP-2 PRO 606 atom O / d(C3,CA1) / d(CA1,N1)2 / d(H4,O1) / d(H4,O2) / d(O1,O2) / d(CA1,O2) / d(CA6,O1) / d(CA6,O2) / d(CA1,C5) / d(O2,H3) / d(N2,C2) / d(CA5,N2) / d(N2,C4) / d(N2,C6) / d(N2,CA3) / d(N2,O3) / d(O4,H2): unit not given beside the values
Settings: for Ligand-pharmacophore element distance, pharmacophore element C2 / Ligand-pharmacophore element distance, pharmacophore element C3 / Ligand-pharmacophore element distance, pharmacophore element C4 / Ligand-pharmacophore element distance, pharmacophore element C5 / Ligand-pharmacophore element distance, pharmacophore element C6 / Ligand-pharmacophore element distance, pharmacophore element C7 / Ligand-pharmacophore element distance, pharmacophore element CA1 / Ligand-pharmacophore element distance, pharmacophore element CA2 / Ligand-pharmacophore element distance, pharmacophore element CA3 / Ligand-pharmacophore element distance, pharmacophore element CA4 / Ligand-pharmacophore element distance, pharmacophore element CA5 / Ligand-pharmacophore element distance, pharmacophore element CA6: Table A4-1; for d(CA1,C5) / d(CA1,O1) / d(CA1,O2) / d(CA1,O4) / d(H4,O1) / d(H4,O2) / d(O1,O2) / d(O4,H2): Table A5-1 pharmacophore: distance between elements, S2/S1 region; for d(N2,C2) / d(N2,CA2) / d(O2,H3) / d(O2,N2): Table A5-2 pharmacophore distance, S3/S4 region; for a(C5, CA1, O1) / a(CA1, O1, O2) / a(CA1, O4, H2) / a(O1, CA1, O4) / a(O1, O2, H4): Table A6-1 pharmacophore angle; for a(O1, O2, H3) / a(O1, O2, N2) / a(O2, N2, C2) / a(O2, N2, CA2): Table A6-2 pharmacophore angle; for Pharmacophore torsion angle a(O1, O2, N2, CA2): Table A7-2
Outline: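 Inhibitor complexes were obtained by soaking crystals of E. coli-derived human MASP-2 CCP2-SP. Synchrotron diffraction at 1.0 wavelength, molecular replacement and partial refinement gave the models; one pose per ligand was chosen for contact analysis.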

[1] = Table A7-1, between pharmacophore elements of the bound compound
[2] = between pharmacophore elements of the bound compound

MASP-2 CCP2-SP, sequence (O00187 445-686): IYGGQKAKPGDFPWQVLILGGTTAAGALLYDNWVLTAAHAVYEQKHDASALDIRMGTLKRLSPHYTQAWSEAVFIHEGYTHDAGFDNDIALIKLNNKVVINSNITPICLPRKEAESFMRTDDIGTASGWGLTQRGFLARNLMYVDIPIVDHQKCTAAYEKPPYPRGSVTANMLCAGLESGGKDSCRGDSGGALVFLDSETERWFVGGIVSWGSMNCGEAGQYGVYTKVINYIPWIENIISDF
MASP-2 CCP2-SP, sequence (O00187 364-432 partner): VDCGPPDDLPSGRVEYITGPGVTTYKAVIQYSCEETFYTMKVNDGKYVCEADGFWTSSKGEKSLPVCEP

Structure (SMILES): C[C@H](NC(=O)[C@H]1C[C@@H](c2ccccc2)CCN1)C(=O)NCc1cc(Cl)ccc1O.Cl [1078_14]
- Ligand-pharmacophore element distance, pharmacophore element C2: 0.74
- Ligand-pharmacophore element distance, pharmacophore element C3: 0
- Ligand-pharmacophore element distance, pharmacophore element C4: 0
- Ligand-pharmacophore element distance, pharmacophore element C5: 0.47
- Ligand-pharmacophore element distance, pharmacophore element C6: 0
- Ligand-pharmacophore element distance, pharmacophore element C7: 0
- Ligand-pharmacophore element distance, pharmacophore element CA1: 1.61
- Ligand-pharmacophore element distance, pharmacophore element CA2: 0.8
- Ligand-pharmacophore element distance, pharmacophore element CA3: 0
- Ligand-pharmacophore element distance, pharmacophore element CA4: 0
- Ligand-pharmacophore element distance, pharmacophore element CA5: 0
- Ligand-pharmacophore element distance, pharmacophore element CA6: 0
- d(CA1,C5): 3.13
- d(CA1,O1): 4.46
- d(CA1,O2): 4.47
- d(CA1,O4): 2.75
- d(H4,O1): 2.48
- d(H4,O2): 2.59
- d(O1,O2): 2.91
- d(O4,H2): 0.97
- d(N2,C2): 1.45
- d(N2,CA2): 5.69
- d(O2,H3): 2.58
- d(O2,N2): 2.77
- a(C5, CA1, O1): 159.36
- a(CA1, O1, O2): 109.29
- a(CA1, O4, H2): 126.58
- a(O1, CA1, O4): 70.42
- a(O1, O2, H4): 109.80
- a(O1, O2, H3): 144.55
- a(O1, O2, N2): 148.03
- a(O2, N2, C2): 129.57
- a(O2, N2, CA2): 155.65
- Pharmacophore torsion angle a(C5, CA1, O1, H4) [1]: 20.44
- Pharmacophore torsion angle a(H4, O1, O2, H3) [1]: −134.39
- Pharmacophore torsion angle a(H4, O1, O2, N2) [1]: −121.21
- Pharmacophore torsion angle a(O1, H4, O2, CA1) [1]: −62.09
- Pharmacophore torsion angle a(O1, O2, N2, C2) [1]: 126.74
- Pharmacophore torsion angle a(O1, O2, N2, CA2) [2]: 134.23

Structure (SMILES): C[C@H](NC(=O)[C@H]1C[C@@H](c2ccccc2)CCN1)C(=O)NCc1cc(Cl)ccc1O.Cl [1078_15]
- Ligand-pharmacophore element distance, pharmacophore element C2: 0.81
- Ligand-pharmacophore element distance, pharmacophore element C3: 0
- Ligand-pharmacophore element distance, pharmacophore element C4: 0
- Ligand-pharmacophore element distance, pharmacophore element C5: 0.43
- Ligand-pharmacophore element distance, pharmacophore element C6: 0
- Ligand-pharmacophore element distance, pharmacophore element C7: 0
- Ligand-pharmacophore element distance, pharmacophore element CA1: 1.56
- Ligand-pharmacophore element distance, pharmacophore element CA2: 0.65
- Ligand-pharmacophore element distance, pharmacophore element CA3: 0
- Ligand-pharmacophore element distance, pharmacophore element CA4: 0
- Ligand-pharmacophore element distance, pharmacophore element CA5: 0
- Ligand-pharmacophore element distance, pharmacophore element CA6: 0
- d(CA1,C5): 3.13
- d(CA1,O1): 4.59
- d(CA1,O2): 4.59
- d(CA1,O4): 2.74
- d(H4,O1): 2.66
- d(H4,O2): 2.49
- d(O1,O2): 2.93
- d(O4,H2): 0.97
- d(N2,C2): 1.45
- d(N2,CA2): 5.66
- d(O2,H3): 2.97
- d(O2,N2): 2.84
- a(C5, CA1, O1): 160.41
- a(CA1, O1, O2): 108.62
- a(CA1, O4, H2): 127.31
- a(O1, CA1, O4): 65.89
- a(O1, O2, H4): 110.90
- a(O1, O2, H3): 143.22
- a(O1, O2, N2): 147.42
- a(O2, N2, C2): 124.17
- a(O2, N2, CA2): 155.02
- Pharmacophore torsion angle a(C5, CA1, O1, H4) [1]: 19.98
- Pharmacophore torsion angle a(H4, O1, O2, H3) [1]: −124.63
- Pharmacophore torsion angle a(H4, O1, O2, N2) [1]: −117.88
- Pharmacophore torsion angle a(O1, H4, O2, CA1) [1]: −64.96
- Pharmacophore torsion angle a(O1, O2, N2, C2) [1]: 139.14
- Pharmacophore torsion angle a(O1, O2, N2, C2)2 [1]: 139.34
- Pharmacophore torsion angle a(O1, O2, N2, CA2) [2]: 141.63

Structure (SMILES): C[C@H](NC(=O)[C@H]1C[C@@H](c2ccccc2)CCN1)C(=O)NCc1cc(Cl)ccc1O.Cl [1078_16]
- Ligand-pharmacophore element distance, pharmacophore element C2: 0.64
- Ligand-pharmacophore element distance, pharmacophore element C3: 0
- Ligand-pharmacophore element distance, pharmacophore element C4: 0
- Ligand-pharmacophore element distance, pharmacophore element C5: 0.42
- Ligand-pharmacophore element distance, pharmacophore element C6: 0
- Ligand-pharmacophore element distance, pharmacophore element C7: 0
- Ligand-pharmacophore element distance, pharmacophore element CA1: 1.49
- Ligand-pharmacophore element distance, pharmacophore element CA2: 0.49
- Ligand-pharmacophore element distance, pharmacophore element CA3: 0
- Ligand-pharmacophore element distance, pharmacophore element CA4: 0
- Ligand-pharmacophore element distance, pharmacophore element CA5: 0
- Ligand-pharmacophore element distance, pharmacophore element CA6: 0
- d(CA1,C5): 3.13
- d(CA1,O1): 4.42
- d(CA1,O2): 4.54
- d(CA1,O4): 2.74
- d(H4,O1): 2.20
- d(H4,O2): 2.69
- d(O1,O2): 3.11
- d(O4,H2): 0.97
- d(N2,C2): 1.49
- d(N2,CA2): 5.80
- d(O2,H3): 2.96
- d(O2,N2): 2.90
- a(C5, CA1, O1): 161.46
- a(CA1, O1, O2): 112.44
- a(CA1, O4, H2): 126.68
- a(O1, CA1, O4): 67.40
- a(O1, O2, H4): 101.76
- a(O1, O2, H3): 140.06
- a(O1, O2, N2): 144.54
- a(O2, N2, C2): 122.62
- a(O2, N2, CA2): 154.31
- Pharmacophore torsion angle a(C5, CA1, O1, H4) [1]: 14.30
- Pharmacophore torsion angle a(H4, O1, O2, H3) [1]: −119.50
- Pharmacophore torsion angle a(H4, O1, O2, N2) [1]: −111.94
- Pharmacophore torsion angle a(O1, H4, O2, CA1) [1]: −58.07
- Pharmacophore torsion angle a(O1, O2, N2, C2) [1]: 136.30
- Pharmacophore torsion angle a(O1, O2, N2, CA2) [2]: 139 28
